Measured values: ChEMBL document CHEMBL5550104, “Discovery of 3-hydroxymethyl-azetidine derivatives as potent polymerase theta inhibitors” (Bioorg Med Chem, 2024)

What was measured:
[1] = target: T1, DNA polymerase theta (Homo sapiens, UniProt O75417)
[2] = test system: DLD-1; assay: Antiproliferative activity against BRCA2 deficient human DLD-1 cells assessed as inhibition of cell growth incubated for 7 days by Cell-titer glo luminescence assay; format: functional, cell-based; settings: DLD-1, 168 h
[3] = target: T1, DNA polymerase theta; assay: Inhibition of DNA polymerase theta mediated TMEJ repair activity in human HEK293T cells transfected with TMEJ reporter incubated for 24 hrs by Nano-glo luciferase assay; format: cell-based
[4] = target: Cytochrome P450 2D6 (Homo sapiens, UniProt P10635); assay: Inhibition of CYP2D6 in human liver microsomes using dextromethorphan as substrate incubated for 10 mins in presence of NADPH by LC-MS/MS analysis; format: ADME, Microsome
[5] = target: T2, Cytochrome P450 1A2 (Homo sapiens, UniProt P05177); assay: Inhibition of CYP1A2 in human liver microsomes using phenacetin as substrate incubated for 10 mins in presence of NADPH by LC-MS/MS analysis; format: ADME, Microsome
T2 sequence (P05177 whole entry): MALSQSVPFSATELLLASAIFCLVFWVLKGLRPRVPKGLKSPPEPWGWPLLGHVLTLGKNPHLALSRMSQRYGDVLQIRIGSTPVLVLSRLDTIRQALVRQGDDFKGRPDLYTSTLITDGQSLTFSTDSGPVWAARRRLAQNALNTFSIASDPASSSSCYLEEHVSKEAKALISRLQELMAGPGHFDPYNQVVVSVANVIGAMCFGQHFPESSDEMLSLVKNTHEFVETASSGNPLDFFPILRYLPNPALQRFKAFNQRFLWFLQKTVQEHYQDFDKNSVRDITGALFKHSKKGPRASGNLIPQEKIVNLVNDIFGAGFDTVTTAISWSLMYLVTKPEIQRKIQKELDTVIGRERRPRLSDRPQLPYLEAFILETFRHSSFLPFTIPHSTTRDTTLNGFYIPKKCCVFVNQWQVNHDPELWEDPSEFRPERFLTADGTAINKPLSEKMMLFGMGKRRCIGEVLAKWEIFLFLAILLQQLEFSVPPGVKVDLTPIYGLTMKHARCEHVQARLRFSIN

[6] = target: Cytochrome P450 2C9 (Homo sapiens, UniProt P11712); assay: Inhibition of CYP2C9 in human liver microsomes using diclofenac as substrate incubated for 10 mins in presence of NADPH by LC-MS/MS analysis; format: ADME, Microsome
[7] = target: Cytochrome P450 2C19 (Homo sapiens, UniProt P33261); assay: Inhibition of CYP2C19 in human liver microsomes using S-mephenytoin as substrate incubated for 10 mins in presence of NADPH by LC-MS/MS analysis; format: ADME, Microsome
[8] = target: Cytochrome P450 3A4 (Homo sapiens, UniProt P08684); assay: Inhibition of CYP3A4 in human liver microsomes using midazolam as substrate incubated for 10 mins in presence of NADPH by LC-MS/MS analysis; format: ADME, Microsome
Sequence of Cytochrome P450 3A4 (P08684 whole entry): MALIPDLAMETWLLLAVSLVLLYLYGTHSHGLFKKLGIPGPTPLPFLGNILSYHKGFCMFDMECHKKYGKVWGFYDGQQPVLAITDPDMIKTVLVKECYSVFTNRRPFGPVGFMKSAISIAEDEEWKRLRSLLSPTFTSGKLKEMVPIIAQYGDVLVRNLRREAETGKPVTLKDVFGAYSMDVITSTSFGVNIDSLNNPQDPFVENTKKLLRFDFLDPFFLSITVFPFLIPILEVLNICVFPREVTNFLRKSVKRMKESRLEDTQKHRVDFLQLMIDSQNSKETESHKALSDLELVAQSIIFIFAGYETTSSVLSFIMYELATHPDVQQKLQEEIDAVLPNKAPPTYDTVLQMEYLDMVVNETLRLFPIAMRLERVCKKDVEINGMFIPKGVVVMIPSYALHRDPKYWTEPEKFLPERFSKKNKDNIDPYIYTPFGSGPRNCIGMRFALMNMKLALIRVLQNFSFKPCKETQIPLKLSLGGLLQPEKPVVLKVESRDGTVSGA

T1 sequence (O75417 whole entry): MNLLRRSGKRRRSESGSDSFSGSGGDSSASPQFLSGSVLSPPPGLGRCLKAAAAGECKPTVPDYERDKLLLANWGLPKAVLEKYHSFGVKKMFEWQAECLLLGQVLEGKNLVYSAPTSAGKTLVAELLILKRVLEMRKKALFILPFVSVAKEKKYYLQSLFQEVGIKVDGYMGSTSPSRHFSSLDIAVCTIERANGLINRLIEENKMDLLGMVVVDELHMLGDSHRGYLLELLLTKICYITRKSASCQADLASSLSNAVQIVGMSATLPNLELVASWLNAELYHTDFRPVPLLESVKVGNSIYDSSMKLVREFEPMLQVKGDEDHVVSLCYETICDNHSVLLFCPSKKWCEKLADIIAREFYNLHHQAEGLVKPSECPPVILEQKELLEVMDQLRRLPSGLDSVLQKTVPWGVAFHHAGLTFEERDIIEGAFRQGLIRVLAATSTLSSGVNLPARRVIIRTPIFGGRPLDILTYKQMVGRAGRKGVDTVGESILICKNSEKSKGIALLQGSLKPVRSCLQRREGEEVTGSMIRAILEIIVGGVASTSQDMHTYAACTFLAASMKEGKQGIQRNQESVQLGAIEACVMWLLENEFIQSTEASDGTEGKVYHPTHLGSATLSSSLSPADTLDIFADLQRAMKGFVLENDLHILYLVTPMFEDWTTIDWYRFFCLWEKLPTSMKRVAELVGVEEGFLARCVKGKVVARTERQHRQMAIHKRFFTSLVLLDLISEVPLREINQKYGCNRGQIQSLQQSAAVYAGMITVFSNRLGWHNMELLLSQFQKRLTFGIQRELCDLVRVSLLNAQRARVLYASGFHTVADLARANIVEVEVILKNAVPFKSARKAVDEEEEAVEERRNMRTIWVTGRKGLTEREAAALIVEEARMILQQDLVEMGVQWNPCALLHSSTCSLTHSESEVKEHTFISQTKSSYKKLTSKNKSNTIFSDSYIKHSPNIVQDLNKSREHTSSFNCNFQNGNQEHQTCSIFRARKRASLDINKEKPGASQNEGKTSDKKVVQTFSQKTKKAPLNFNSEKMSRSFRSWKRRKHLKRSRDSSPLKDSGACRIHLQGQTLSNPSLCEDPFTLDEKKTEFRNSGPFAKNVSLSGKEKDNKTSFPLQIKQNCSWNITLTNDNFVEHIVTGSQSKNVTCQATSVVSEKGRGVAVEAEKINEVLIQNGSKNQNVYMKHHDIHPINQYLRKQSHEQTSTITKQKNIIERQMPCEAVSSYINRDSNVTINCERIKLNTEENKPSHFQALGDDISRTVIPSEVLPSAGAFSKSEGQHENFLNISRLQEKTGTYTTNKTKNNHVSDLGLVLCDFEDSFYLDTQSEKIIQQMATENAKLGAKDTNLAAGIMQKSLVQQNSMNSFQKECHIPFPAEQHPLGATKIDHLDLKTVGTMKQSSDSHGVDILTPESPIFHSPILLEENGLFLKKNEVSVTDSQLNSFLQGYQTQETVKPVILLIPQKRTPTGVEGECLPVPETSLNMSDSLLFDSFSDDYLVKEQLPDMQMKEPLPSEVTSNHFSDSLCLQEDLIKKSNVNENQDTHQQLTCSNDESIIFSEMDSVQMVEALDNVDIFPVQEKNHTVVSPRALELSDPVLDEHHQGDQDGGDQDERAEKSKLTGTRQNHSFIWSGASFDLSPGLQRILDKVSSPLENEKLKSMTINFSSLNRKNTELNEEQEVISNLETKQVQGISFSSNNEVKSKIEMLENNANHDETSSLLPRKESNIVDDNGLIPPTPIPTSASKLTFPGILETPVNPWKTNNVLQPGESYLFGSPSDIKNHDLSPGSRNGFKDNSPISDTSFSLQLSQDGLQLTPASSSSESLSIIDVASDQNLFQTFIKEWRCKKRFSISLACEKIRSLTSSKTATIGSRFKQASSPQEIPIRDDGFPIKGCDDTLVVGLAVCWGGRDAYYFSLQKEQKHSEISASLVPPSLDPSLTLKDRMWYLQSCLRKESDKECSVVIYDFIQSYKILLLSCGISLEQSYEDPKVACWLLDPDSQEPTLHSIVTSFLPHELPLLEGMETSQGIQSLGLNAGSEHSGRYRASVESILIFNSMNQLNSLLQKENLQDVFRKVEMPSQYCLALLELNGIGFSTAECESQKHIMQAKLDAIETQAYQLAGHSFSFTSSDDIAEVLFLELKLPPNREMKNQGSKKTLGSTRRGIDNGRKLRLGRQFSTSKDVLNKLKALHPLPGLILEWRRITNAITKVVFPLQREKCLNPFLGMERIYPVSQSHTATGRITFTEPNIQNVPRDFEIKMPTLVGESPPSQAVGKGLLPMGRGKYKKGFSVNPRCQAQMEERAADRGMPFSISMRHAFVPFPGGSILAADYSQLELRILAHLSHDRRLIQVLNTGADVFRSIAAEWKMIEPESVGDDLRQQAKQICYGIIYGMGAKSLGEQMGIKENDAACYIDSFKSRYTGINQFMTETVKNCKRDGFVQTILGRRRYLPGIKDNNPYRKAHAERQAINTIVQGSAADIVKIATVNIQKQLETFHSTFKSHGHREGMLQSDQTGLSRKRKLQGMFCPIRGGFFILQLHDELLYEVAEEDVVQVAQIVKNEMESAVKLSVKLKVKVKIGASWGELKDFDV
Sequence of Cytochrome P450 2D6 (P10635 whole entry): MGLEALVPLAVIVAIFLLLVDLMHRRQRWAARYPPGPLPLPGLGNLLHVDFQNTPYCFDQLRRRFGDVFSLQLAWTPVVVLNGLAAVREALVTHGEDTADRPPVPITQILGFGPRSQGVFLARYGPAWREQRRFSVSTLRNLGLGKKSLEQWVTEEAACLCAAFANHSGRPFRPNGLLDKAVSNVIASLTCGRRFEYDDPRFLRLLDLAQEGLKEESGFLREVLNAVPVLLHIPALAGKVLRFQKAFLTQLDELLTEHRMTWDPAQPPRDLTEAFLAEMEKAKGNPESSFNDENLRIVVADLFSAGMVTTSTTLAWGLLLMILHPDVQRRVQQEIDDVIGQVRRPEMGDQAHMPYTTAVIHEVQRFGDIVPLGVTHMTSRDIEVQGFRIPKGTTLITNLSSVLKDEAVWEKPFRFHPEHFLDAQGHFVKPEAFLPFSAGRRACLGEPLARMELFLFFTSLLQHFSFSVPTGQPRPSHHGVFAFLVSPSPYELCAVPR
Sequence of Cytochrome P450 2C9 (P11712 whole entry): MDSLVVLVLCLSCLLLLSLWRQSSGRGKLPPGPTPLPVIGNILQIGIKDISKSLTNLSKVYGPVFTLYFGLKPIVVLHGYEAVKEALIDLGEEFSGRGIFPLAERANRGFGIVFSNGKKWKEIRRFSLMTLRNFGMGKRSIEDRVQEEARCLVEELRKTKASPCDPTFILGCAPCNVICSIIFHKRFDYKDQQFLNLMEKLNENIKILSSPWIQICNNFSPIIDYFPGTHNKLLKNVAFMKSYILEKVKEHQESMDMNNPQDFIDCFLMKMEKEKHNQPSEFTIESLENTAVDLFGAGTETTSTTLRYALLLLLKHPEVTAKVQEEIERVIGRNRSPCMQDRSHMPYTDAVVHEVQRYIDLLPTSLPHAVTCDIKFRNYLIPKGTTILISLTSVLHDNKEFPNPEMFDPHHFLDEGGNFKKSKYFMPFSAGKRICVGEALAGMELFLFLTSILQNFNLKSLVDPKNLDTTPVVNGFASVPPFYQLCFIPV
Sequence of Cytochrome P450 2C19 (P33261 whole entry): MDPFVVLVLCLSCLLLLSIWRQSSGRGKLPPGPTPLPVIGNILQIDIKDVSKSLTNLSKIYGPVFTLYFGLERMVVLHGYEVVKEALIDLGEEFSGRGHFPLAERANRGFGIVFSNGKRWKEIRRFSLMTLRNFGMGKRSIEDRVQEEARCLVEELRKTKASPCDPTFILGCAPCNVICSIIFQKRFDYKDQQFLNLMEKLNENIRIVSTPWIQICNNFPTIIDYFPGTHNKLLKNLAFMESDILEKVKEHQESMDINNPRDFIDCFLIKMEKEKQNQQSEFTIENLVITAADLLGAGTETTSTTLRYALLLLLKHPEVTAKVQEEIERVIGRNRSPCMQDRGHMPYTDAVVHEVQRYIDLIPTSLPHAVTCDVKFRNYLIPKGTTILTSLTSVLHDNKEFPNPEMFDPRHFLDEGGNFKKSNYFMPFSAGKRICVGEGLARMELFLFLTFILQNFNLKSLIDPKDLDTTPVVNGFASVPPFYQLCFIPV

Row | Structure (SMILES) | IC50 [1] [nM] | also measured
1 | Cc1cc(C(F)(F)F)cc(N2C(=O)C[C@H]2C(=O)N(C)c2ccc(F)c(Cl)c2)n1 | 41.3 | 
2 | Cc1cc(C(F)(F)F)c(C#N)c(N2C[C@@H](CCl)[C@H]2C(=O)N(C)c2ccc(F)c(Cl)c2)n1 | 923 | 
3 | Cc1cc(C(F)(F)F)c(C#N)c(N2C(=O)C[C@H]2C(=O)N(C)c2ccc(F)c(Cl)c2)n1 | 858 | 
4 | Cc1cc(C(F)(F)F)cc(N2CCOC[C@H]2C(=O)N(C)c2ccc(F)c(Cl)c2)n1 | 3890 | 
5 | [2H]C([2H])([2H])N(C(=O)[C@@H]1[C@H](CO)CN1c1nc(C)cc(C(F)(F)F)c1C#N)c1ccc(F)c(Cl)c1 |  | IC50 [4]: 17300 nM; IC50 [5]: > 50000 nM; IC50 [6]: 3100 nM; IC50 [7]: 770 nM; IC50 [8]: 14600 nM
6 | Cc1cc(C(F)(F)F)c(C#N)c(N2CC[C@H]2C(=O)N(C)c2ccc(F)c(Cl)c2)n1 | 104 | 

Second part, led by results:

Row | IC50 [1] [nM] | Structure (SMILES) | also measured
7 | 221 | Cc1cc(C(F)(F)F)cc(N2CC[C@H]2C(=O)N(C)c2ccc(F)c(Cl)c2)n1 | 
8 | 7.9 | Cc1cc(C(F)(F)F)c(C#N)c(N2CC[C@@H](O)[C@H]2C(=O)N(C)c2ccc(F)c(Cl)c2)n1 | IC50 [2]: 5500 nM; IC50 [3]: 160 nM
